Results from patent publication US6862890B2, “Process for production of nanoparticles and microparticles by spray freezing into liquid” (Board of Regents, University of Texas System, priority 2001, dated 2005).
One block for each molecule: values may come before it.

Experiments:
Type in all cases: physicochemical
[1] = Particle size of powders (time-of-flight, AERO-[…])
Experimental: (§1) An aliquot of 0.1 g bovine insulin was dissolved in 20 ml HCl (pH=2), the solution was then titrated by 0.1 N NaOH to pH 7.4. The feed solution was then atomized using an ISCO pump by spray freezing into liquid nitrogen. The nozzle used was polyetheretherketone tubing with a diameter of 63.5 μm. The flow rate was 14 ml/min at 4000 psi. The frozen particles were collected and dried in a tray lyophilizer.
The span index is used to described the polydispersity in a given particle size distribution and is defined as (D90-D10)/D50, where D10, D50, and D90 are the respective particle size at 10, 50, 90 percent cumulative percent undersize.

[2] = BET specific surface area of powders
[3] = Dissolution of drug from powders in dissolution media (FeSSIF); details: 60 minutes
From the text: This media is used to simulate gastrointestinal conditions. FeSSIF is the dissolution media that the powders produced in the following examples are dispersed into to quantitate the amount of drug dissolved as a function of time.

[4] = Contact angle of powder compacts against purified water (wettability); details: compacts of powders
From the text: The two solutions were mixed and allowed to equilibrate to generate a water-soluble inclusion complex between danazol and HPβCD. The solution was then processed by SFL and freeze-dried in a tray lyophilizer. The solution was atomized directly into liquid nitrogen through an insulated polyetheretherketone (PEEK) nozzle with a 63.5 μm orifice at 5000 psi constant pressure supplied by an ISCO syringe pump. The atomized frozen powder was then collected by sieve filtration and freeze-dried. […] Measurement of the contact angle of compacts of the various samples investigated allowed for the determination of the wettability of the powders. […] A lower contact angle coincided with enhanced wettability of the powder in aqueous dissolution media. […] The two solutions were mixed to form a one-phase cosolvent solution. The solution was then processed by SFL and freeze-dried and fluidized in an atmospheric freeze-drying (ATMFD) chamber. […] The atomized frozen powder was then collected by sieve filtration and freeze-dried using a cryogenic atmospheric (ATMFD) fluidized bed apparatus. […] The microparticles are porous and have a high surface area. […] Measurement of the contact angle of compacts of the various samples investigated allowed for the determination of the wettability of the powders. […] A lower contact angle coincided with a better wettability of the powder in aqueous dissolution media. […]

[5] = Chemical stability of insulin: level of A-21 desamido insulin; details: stored at −4° C.
Experimental: as §1, with “lyophilizer. The resulting particles were highly porous. […] The SFL process decreased the level of covalent insulin dimer (Table 2). The mean particle size diameter as determined by time-of-flight measurement was 5.06 microns. SEM photographs reveal that the particle is an aggregate composed of small domains of insulin.” for “lyophilizer.”
(§2) The SFL insulin powder was prepared according to the procedure outlined in Example 1 with same formulation. The SFL insulin powder was stored at −4° C. The samples were taken out at 6, 12 and 24 weeks.

[6] = Chemical stability of insulin: level of covalent insulin dimer; details: for percentage of covalent insulin dimer: stored at −4° C.
Experimental: as §1, with “lyophilizer. The resulting particles were highly porous. […] The SFL process decreased the level of covalent insulin dimer (Table 2). The mean particle size diameter as determined by time-of-flight measurement was 5.06 microns. SEM photographs reveal that the particle is an aggregate composed of small domains of insulin.” for “lyophilizer.”
as §2

Span Index (D90-D10)/D50 [1]: 2.94
D10 ([1]; time-of-flight, 10 percent cumulative undersize): 15.56 μm
D50 ([1]; time-of-flight, 50 percent cumulative undersize): 39.70 μm
D90 ([1]; time-of-flight, 90 percent cumulative undersize): 132.33 μm
Molecule: NC(=O)N1c2ccccc2C=Cc2ccccc21 [CBZ, carbamazepine]

BET surface area [2]: 0.52 m^2/g
amount of danazol dissolved [3]: 21%
Molecule: C#C[C@]1(O)CC[C@H]2[C@@H]3CCC4=Cc5oncc5C[C@]4(C)[C@H]3CC[C@@]21C [Danazol]

Average Contact Angle ± S.D. against purified water [4]: 64.3 ± 1.1 °
Average Contact Angle ± S.D. against purified water ([4]; listed as danazol alone): 64.3 °
Molecule: C#C[C@]1(O)CC[C@H]2[C@@H]3CCC4=Cc5oncc5C[C@]4(C)[C@H]3CC[C@@]21C [SFL Danazol Alone, danazol]

Molecule: bovine insulin [Bulk insulin]
percentage of A-21 desamido ([5]; 12 weeks): 2.61 percentage
percentage of A-21 desamido ([5]; 24 weeks): 2.72 percentage
percentage of A-21 desamido ([5]; Initial): 2.46 percentage
percentage of covalent insulin dimer ([6]; 12 weeks): 1.18 percentage
percentage of covalent insulin dimer ([6]; 24 weeks): 1.15 percentage
Covalent Insulin Dimer (percent) ([6]; Example 1, after SFL and lyophilization vs bulk): 0.25%
percentage of covalent insulin dimer ([6]; Initial): 0.5 percentage
Mean Particle Size ([1]; time-of-flight): 14.24 μm
